For 43 compounds, IC50 results are on record in US20210198277A1, “AMINE-SUBSTITUTED ARYL OR HETEROARYL COMPOUNDS” (Epizyme, Inc., priority 2016, published 2021).

Broadly, the IC50 is the concentration at which inhibition is half-maximal.

The test concerns the target T1, EHMT2 (Homo sapiens, UniProt Q96KQ7).
T1 construct: host or cells: MDA-MB-231
T1 sequence (Q96KQ7 1-1210): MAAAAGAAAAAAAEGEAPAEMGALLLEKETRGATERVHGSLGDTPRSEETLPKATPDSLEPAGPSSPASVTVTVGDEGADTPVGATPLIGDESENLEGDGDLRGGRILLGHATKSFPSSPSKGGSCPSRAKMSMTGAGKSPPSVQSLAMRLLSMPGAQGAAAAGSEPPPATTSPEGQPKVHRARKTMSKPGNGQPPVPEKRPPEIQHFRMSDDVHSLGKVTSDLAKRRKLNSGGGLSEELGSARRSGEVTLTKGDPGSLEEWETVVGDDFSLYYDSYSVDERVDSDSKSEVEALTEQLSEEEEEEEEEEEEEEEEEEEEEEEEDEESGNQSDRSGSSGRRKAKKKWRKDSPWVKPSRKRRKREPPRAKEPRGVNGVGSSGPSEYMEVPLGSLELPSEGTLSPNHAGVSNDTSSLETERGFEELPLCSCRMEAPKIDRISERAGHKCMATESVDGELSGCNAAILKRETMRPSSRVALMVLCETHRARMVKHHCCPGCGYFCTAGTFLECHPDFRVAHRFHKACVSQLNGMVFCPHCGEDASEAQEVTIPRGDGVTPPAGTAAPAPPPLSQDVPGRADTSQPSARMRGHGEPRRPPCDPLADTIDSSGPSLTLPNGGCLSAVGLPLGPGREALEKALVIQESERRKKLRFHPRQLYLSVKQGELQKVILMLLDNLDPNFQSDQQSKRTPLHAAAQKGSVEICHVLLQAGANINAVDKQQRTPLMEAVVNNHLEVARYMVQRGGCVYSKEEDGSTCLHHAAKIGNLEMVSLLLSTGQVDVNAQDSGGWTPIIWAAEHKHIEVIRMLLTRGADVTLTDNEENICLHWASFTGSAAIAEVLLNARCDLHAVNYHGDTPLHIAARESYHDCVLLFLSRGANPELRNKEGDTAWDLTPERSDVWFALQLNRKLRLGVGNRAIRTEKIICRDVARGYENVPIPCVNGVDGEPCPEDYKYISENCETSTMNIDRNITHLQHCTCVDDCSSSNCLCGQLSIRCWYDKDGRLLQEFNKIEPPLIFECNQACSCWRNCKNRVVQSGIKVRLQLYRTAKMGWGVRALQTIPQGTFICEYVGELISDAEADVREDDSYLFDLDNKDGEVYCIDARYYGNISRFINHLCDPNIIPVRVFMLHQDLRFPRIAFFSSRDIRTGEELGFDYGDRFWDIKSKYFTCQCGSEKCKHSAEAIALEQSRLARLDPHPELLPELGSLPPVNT
The test is described as follows: MDA-MB-231 H3K9me2 in-cell Western assay (EHMT2 ICW). The following applies: Table II; MDA-MB-231 H3K9me2 in-cell Western; read-out: EHMT2 ICW (IC50 μM). Format: cell-based. From the text: RPMI/Glutamax medium, Penicillin-Streptomycin, Heat Inactivated Fetal Bovine Serum, and D-PBS were purchased from Life Technologies (Grand Island, N.Y., USA). Odyssey blocking buffer, 800CW goat anti-mouse IgG (H+L) antibody, and Licor Odyssey Infrared Scanner were purchased from Licor Biosciences, Lincoln, Nebr., USA. […] 16% Paraformaldehyde was purchased from Electron Microscopy Sciences, Hatfield, Pa., USA).MDA-MB-231 cells were maintained in complete growth medium (RPMI supplemented with 10% v/v heat inactivated fetal bovine serum) and cultured at 37° C. under 5% CO2. UNC0638 was purchased from Sigma-Aldrich (St. Louis, Mo., USA).
Compound (100 nL) was added directly to 384-well cell plate. MDA-MB-231 cells (ATCC) were seeded in assay medium (RPMI/Glutamax supplemented with 10% v/v heat inactivated fetal bovine serum and 1% Penicillin/Streptomycin, Life Technologies) at a concentration of 3,000 cells per well to a Poly-D-Lysine coated 384-well cell culture plate with 50 μL per well. […] Plates were incubated at room temperature for 30 minutes and then incubated at 37° C., 5% CO2 for additional 48 hours. After the incubation, 50 μL per well of 8% paraformaldehyde (Electron Microscopy Sciences) in PBS was added to the plates and incubated at room temperature for 20 minutes. […] Next, 60 μL per well of Odyssey blocking buffer (Licor Biosciences) was added to each plate and incubated for 1 hour at room temperature. Blocking buffer was removed and 20 μL of monoclonal primary antibody α-H3K9me2 (Abcam) diluted 1:800 in Odyssey buffer with 0.1% Tween 20 (v/v) were added and plates were incubated overnight (16 hours) at 4° C. Plates were washed 5 times with 100 μL per well of wash buffer. Next 20 μL per well of secondary antibody was added (1:500 800CW donkey anti-mouse IgG (H+L) antibody (Licor Biosciences), 1:1000 DRAQ5 (Cell Signaling Technology) in Odyssey buffer with 0.1% Tween 20 (v/v)) and incubated for 1 hour at room temperature. The plates were washed 5 times with 100 μL per well wash buffer then 2 times with 100 μL per well of water. Plates were allowed to dry at room temperature then imaged on a Licor Odyssey Infrared Scanner (Licor Biosciences) which measured integrated intensity at 700 nm and 800 nm wavelengths. Both 700 and 800 channels were scanned.
First, the ratio for each well was determined by:
The average of the ratio values for each well was calculated and used to determine the percent inhibition for each test well in the plate. Control compound was serially diluted three-fold in DMSO for a total of 10 test concentrations beginning at 1 μM. Percent inhibition was calculated as: […]
IC50 curves were generated using triplicate wells per concentration of compound. […] IC50 values were calculated using a non-linear regression (variable slope-four parameter fit model) with by the following formula: […]

Turning to `COc1ccc(Nc2nccc(N3CCN(S(C)(=O)=O)CC3)n2)cc1OCCCN1CCCC1` [Compound 162], the IC50 is > 10 µM. As for `COc1ccc(Nc2nccc(N3CCCOCC3)n2)cc1OCCCN1CCCC1` [Compound 151], the figure is > 10 µM; as for `COc1ccc(Nc2nccc(N(C)CC3CCOCC3)n2)cc1OCCCN1CCCC1` [Compound 146], 1 to 10 µM; as for `COc1ccc(Nc2ccnc(OCC3CCN(C(C)=O)CC3)c2)cc1OCCCN1CCCC1` [Compound 157], > 10 µM. Turning to `COc1ccc(N(C)c2nccc(NCC3CCN(C(C)=O)CC3)n2)cc1OCCCN1CCCC1` [Compound 158], the IC50 was > 10 µM. Consider `COc1ccc(Nc2nccc(NCC3CCOCC3)n2)cc1OCCN1CCOCC1` [Compound 204], for which the IC50 is > 10 µM. In the case of `COc1ccc(Nc2nccc(N(C)CCO)n2)cc1OCCCN1CCCC1` [Compound 150] it was > 10 µM; in that of `COc1ccc(Nc2nccc(N3CCC(C)(O)CC3)n2)cc1OCCCN1CCCC1` [Compound 141], > 10 µM. As for `COc1ccc(Nc2nccc(NCCc3ccccn3)n2)cc1OCCCN1CCCC1` [Compound 167], the figure is 0.1 to 1 µM. For `COc1ccc(Nc2ncc(CO)cn2)cc1OCCCN1CCCC1` [Compound 181], the IC50 was > 10 µM. As for `COc1ccc(Nc2nccc(N3CCc4ncncc4C3)n2)cc1OCCCN1CCCC1` [Compound 156], the figure is > 10 µM; as for `COc1cnc(Nc2ccnc(CNC3CCOCC3)c2)cc1OCCCN1CCCC1` [Compound 12, 5-methoxy-4-(3-(pyrrolidin-1-yl)propoxy)-N-(2-(((tetrahydro-2H-pyran-4-yl)amino)methyl)pyridin-4-yl)pyridin-2-amine], > 10 µM. In the case of `COc1ccc(Nc2nccc(N(C)Cc3ccccn3)n2)cc1OCCCN1CCCC1` [Compound 136] it was > 10 µM. As for `CNc1cc(C)nc(Nc2ccc(OC)c(OCCCN3CC[C@@H](F)C3)c2)n1` [Compound 186], the figure is 0.1 to 1 µM.

With `COc1ccc(Nc2nccc(NCc3ccc(=O)[nH]c3)n2)cc1OCCCN1CCCC1` [Compound 165], the IC50 was > 10 µM.

Regarding `COc1ccc(Nc2nc(C)cc(C)n2)cc1OCCCN1CCCC1` [Compound 175], the IC50 was > 10 µM. As to `COc1ccc(Nc2nccc(NC3COC3)n2)cc1OCCCN1CCCC1` [Compound 137], the IC50 is > 10 µM. As for `COc1ccc(Nc2nccc(-c3c(C)n[nH]c3C)n2)cc1OCCCN1CCCC1` [Compound 129], the figure is > 10 µM; as for `CCOC(=O)N1CCC(CNc2ccnc(Nc3ccc(OC)c(OCCCN4CCCC4)c3)n2)CC1` [Compound 203], 0.1 to 1 µM.

`COc1ccc(Nc2nccc(NCCC3CCOCC3)n2)cc1OCCCN1CCCC1` [Compound 178]: the IC50 lay in the range of 0.1 to 1 µM. As for `COc1ccc(Nc2nccc(N3CC(C(=O)N(C)C)C3)n2)cc1OCCCN1CCCC1` [Compound 170], the figure is > 10 µM.

On to `COc1ccc(Nc2ccnc(N(C)CC3CCN(C(C)=O)CC3)c2)cc1OCCCN1CCCC1` [Compound 13, 1-(4-(((4-((4-methoxy-3-(3-(pyrrolidin-1-yl)propoxy)phenyl)amino)pyridin-2-yl)(methyl)amino)methyl)piperidin-1-yl)ethan-1-one], for which the IC50 is > 10 µM. As for `COc1ccc(Nc2nccc(N(C)CCCO)n2)cc1OCCCN1CCCC1` [Compound 140], the figure is > 10 µM. With `COc1ccc(Nc2nccc(C)n2)cc1OCCCN1CCCC1` [Compound 174], the IC50 is > 10 µM. In the case of `COc1ccc(Nc2nccc(CNC(C)=O)n2)cc1OCCCN1CCCC1` [Compound 144] it was > 10 µM; in that of `COc1ccc(Nc2nccc(N(C)C)n2)cc1OCCCN1CCCC1` [Compound 171], 1 to 10 µM; in that of `COc1ccc(Nc2nccc(NC(C)(C)C)n2)cc1OCCCN1CCCC1` [Compound 6, N^4-(tert-butyl)-N^2-(4-methoxy-3-(3-(pyrrolidin-1-yl)propoxy)phenyl)pyrimidine-2,4-diamine], 1 to 10 µM. Consider `COc1ccc(Nc2nccc(-c3c[nH]nc3C)n2)cc1OCCCN1CCCC1` [Compound 131], for which the IC50 was > 10 µM.

Take `COc1ccc(Nc2nccc(NCc3ccc4nccn4c3)n2)cc1OCCCN1CCCC1` [Compound 191]: the half-inhibitory concentration (IC50) was 0.1 to 1 µM.

With `COc1ccc(Nc2nccc(-c3c(C)noc3C)n2)cc1OCCCN1CCCC1` [Compound 130], the IC50 is > 10 µM.

`COc1ccc(Nc2nccc(NCC3CCN(S(C)(=O)=O)CC3)n2)cc1OCCCN1CCCC1` [Compound 199]: the IC50 fell in the range of 1 to 10 µM.

For the compound `COc1ccc(Nc2nccc(-n3cc(C)cn3)n2)cc1OCCCN1CCCC1` [Compound 180], the IC50 was > 10 µM. Regarding `COc1ccc(Nc2nccc(NCC3CCNCC3)n2)cc1OCC(O)CN1CCCC1` (stereo not shown) [Compound 15, 1-(2-methoxy-5-((4-((piperidin-4-ylmethyl)amino)pyrimidin-2-yl)amino)phenoxy)-3-(pyrrolidin-1-yl)propan-2-ol], the IC50 is > 10 µM.

Take `COc1ccc(Nc2nccc(N3CCc4[nH]ncc4C3)n2)cc1OCCCN1CCCC1` [Compound 128]: the IC50 was > 10 µM.

Turning to `COc1ccc(Nc2nccc(N(C)C3CCOCC3)n2)cc1OCCCN1CCCC1` [Compound 142], the half-maximal inhibitory concentration (IC50) was > 10 µM. In the case of `COCCCN(C)c1ccnc(Nc2ccc(OC)c(OCCCN3CCCC3)c2)n1` [Compound 143], the IC50 was > 10 µM. As for `COc1ccc(Nc2cc(CNC3CCOCC3)n(C)n2)cc1OCCCN1CCCC1` [Compound 127], the figure is > 10 µM. Turning to `COc1ccc(Nc2nccc(NCCn3cccn3)n2)cc1OCCCN1CCCC1` [Compound 193], the IC50 is 0.1 to 1 µM. In the case of `COc1ccc(Nc2nccc(NCC3CCN(C(C)=O)CC3)n2)cc1OCCC(=O)N1CCCC1` [Compound 166] it was > 10 µM. As for `COc1ccc(Nc2cc(OCC3CCN(C(C)=O)CC3)ccn2)cc1OCCCN1CCCC1` [Compound 173], the figure is > 10 µM; as for `COc1ccc(Nc2nccc(N3CCc4cn[nH]c4C3)n2)cc1OCCCN1CCCC1` [Compound 155], > 10 µM. For the compound `COc1ccc(Nc2nccc(N3CCC(O)CC3)n2)cc1OCCCN1CCCC1` [Compound 148], the IC50 is > 10 µM. In the case of `COc1ccc(Nc2cc(NCC3CCNCC3)ccn2)cc1OCCCN1CCCC1` [Compound 10, N^2-(4-methoxy-3-(3-(pyrrolidin-1-yl)propoxy)phenyl)-N^4-(piperidin-4-ylmethyl)pyridine-2,4-diamine] it was > 10 µM.
